What all share (assay): growth of human tumour cells (NCI), 48 h
The subject of experiment [1] is TK-10.
Experiment [2] deals with SN12C.
In experiment [3] the test system is OVCAR-5.
Experiment [4] has as its system OVCAR-4.
The subject of experiment [5] is K562.
Experiment [6] concerns Malme-3M.
Experiment [7] relates to BT-549.
The test system of experiment [8] is SW-620.
In experiment [9] the test system is SNB-19.
For experiment [10], the system named is HCT-15.
The subject of experiment [11] is MDA-N.
Experiment [12] concerns IGROV-1.
Experiment [13] has as its system MCF7.
For experiment [14], the system named is MOLT-4.
For experiment [15], the system named is HL-60.
Experiment [16] has as its system LOX IMVI.
The test system of experiment [17] is NCI-H23.
The subject of experiment [18] is NCI-H522.
Experiment [19] has as its system SF-268.
The test system of experiment [20] is CCRF-CEM.

The structures appear in SMILES notation.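 Results reflect a 48-hour exposure of cells in 96-well plates to compound at five concentrations. GI50 marks 50% less growth.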 Calls of active or inactive are those of the source. Cut-off read from the data, not from the text of the source: active = GI50 up to about 1.1 µM and inactive = higher.

In the case of `[O-][n+]1c(CN2CCCCC2)nc2cccc3c2c1-c1ccccc1-3`, the GI50 is 27.2 µM (inactive) in [1]; 17.1 µM (inactive) in [2]; 21.3 µM (inactive) in experiment [3]; 31.3 µM (inactive) in [4]; 77.6 µM (inactive) in experiment [5]; 14.3 µM (inactive) in experiment [6]. The GI50 is 48.3 µM (inactive) in [7]; 28.8 µM (inactive) in [8]; 23.9 µM (inactive) in [9]; 26.9 µM in experiment [10]; 22.4 µM (inactive) in [11]; 23.5 µM (inactive) in experiment [12]. The GI50 in experiment [13] is 4.22 µM (inactive); in experiment [14], > 100 µM (inactive); in experiment [15], > 100 µM (inactive); in experiment [16], 19.4 µM (inactive); in experiment [17] it was 20.3 µM (inactive).

Consider `OCC1NCC(O)C(O)C1O` (stereo not given), for which the GI50 is > 100 µM (inactive) in experiment [1]; > 100 µM (inactive) in [2]; > 100 µM (inactive) in experiment [3]; > 100 µM (inactive) in experiment [4]; 22.4 µM (inactive) in experiment [6]; > 100 µM (inactive) in experiment [7]. Also, the GI50 in [18] was > 100 µM (inactive); in [8], > 100 µM (inactive); in experiment [9], > 100 µM (inactive); in experiment [10] it was above 100 µM; in experiment [11], > 100 µM (inactive); in experiment [19], > 100 µM (inactive). Moreover, the GI50 in experiment [12], in [13], in experiment [14], in experiment [15], in experiment [17] and in experiment [20] was > 100 µM (inactive) each time.

On to `OCC1OC(NC(=S)NCSCCC(F)(F)C(F)(F)C(F)(F)C(F)(F)C(F)(F)C(F)(F)F)C(O)C(O)C1O` (stereo not given), for which the GI50 in experiment [1] was 49.7 µM (inactive); in experiment [2], 60 µM (inactive); in experiment [3] it was 56.1 µM (inactive); in experiment [4], > 100 µM (inactive); in experiment [5] it was 19.9 µM (inactive); in experiment [6] it was 73.8 µM (inactive). Further, the GI50 was > 100 µM (inactive) in experiment [7]; 39.4 µM (inactive) in experiment [8]; 36.6 µM (inactive) in experiment [9]; 72.6 µM in [10]; 43.6 µM (inactive) in experiment [11]; 15.2 µM (inactive) in [19]. Besides, the GI50 in experiment [12] was 31.8 µM (inactive); in [13], 40.8 µM (inactive); in [14] it was 21.5 µM (inactive); in experiment [15], 49.4 µM (inactive); in [16] it was 34.4 µM (inactive); in experiment [17] it was 39.5 µM (inactive). In experiment [20], the GI50 was 23.3 µM (inactive).

For the compound `Cc1nc(N)c(N2CCNCC2)c(O)n1`, the GI50 in experiment [1], in [2], in [3], in [5], in experiment [6] and in experiment [7] was > 100 µM (inactive) in each case. The GI50 in [18] was > 100 µM (inactive); in experiment [8] it was > 100 µM (inactive); in [9], > 100 µM (inactive); in [10] it was above 100 µM; in [11], > 100 µM (inactive); in [19] it was > 100 µM (inactive). Further, the GI50 in experiment [13], in experiment [14], in [15], in experiment [16], in experiment [17] and in experiment [20] was > 100 µM (inactive) in each case.

In the case of `Cn1c(=O)c2c(nc3n2CCCC(=O)N3CC(O)CCl)n(C)c1=O` (stereo not given), the GI50 in experiment [1], in experiment [2], in [3], in experiment [4], in experiment [5] and in experiment [7] was > 100 µM (inactive) in each case. Moreover, the GI50 is > 100 µM (inactive) in experiment [18]; > 100 µM (inactive) in experiment [8]; > 100 µM (inactive) in [9]; above 100 µM in experiment [10]; > 100 µM (inactive) in experiment [11]; > 100 µM (inactive) in experiment [19]. The GI50 in [12], in experiment [13], in experiment [14], in experiment [15], in [16] and in [17] was > 100 µM (inactive) each time. For the same compound, the GI50 in experiment [20] was > 100 µM (inactive).

For the compound `CCNC(=O)C1CCCN1C(=O)C(CCCN=C(N)N)NC(=O)C(CC(C)C)NC(=O)C(Cc1c[nH]c2ccccc12)NC(=O)C(Cc1ccc(O)cc1)NC(=O)C(CO)NC(=O)C(Cc1c[nH]c2ccccc12)NC(=O)C(Cc1c[nH]cn1)NC(=O)C1CCC(=O)N1` (stereo not given), the GI50 in experiment [1], in [2], in experiment [3], in experiment [4], in experiment [5] and in experiment [6] was > 100 µM (inactive) each time. The GI50 in experiment [7] is > 100 µM (inactive); in experiment [18], > 100 µM (inactive); in experiment [8], > 100 µM (inactive); in [9], > 100 µM (inactive); in experiment [10], above 100 µM; in experiment [11], > 100 µM (inactive). The GI50 in experiment [19], in experiment [12], in [13], in [14], in experiment [17] and in experiment [20] was > 100 µM (inactive) each time.

Turning to `Cc1cc(S(=O)(=O)[N-]C(=C(C#N)C#N)[n+]2ccc(N(C)C)cc2)c(SCC(=O)O)cc1Cl`, the GI50 is > 100 µM (inactive) in [1]; > 100 µM (inactive) in experiment [2]; > 100 µM (inactive) in experiment [3]; > 100 µM (inactive) in experiment [4]; > 100 µM (inactive) in experiment [5]; 22.6 µM (inactive) in [6]. Also, the GI50 in [7] is > 100 µM (inactive); in experiment [18], 45.8 µM (inactive); in [9] it was > 100 µM (inactive); in [10] it was above 100 µM; in experiment [11], > 100 µM (inactive); in experiment [19], > 100 µM (inactive). The GI50 in experiment [12], in experiment [13], in [14], in experiment [15], in experiment [17] and in experiment [20] was > 100 µM (inactive) throughout.

On to `On1c(-c2ccccc2)nc2ccccc2c1=S`, for which the GI50 in [1] is > 100 µM (inactive); in experiment [2], 7.13 µM (inactive); in [3], > 100 µM (inactive); in experiment [4], 2.22 µM (inactive); in experiment [5] it was 3.91 µM (inactive); in [6], 5 µM (inactive). Besides, the GI50 in [7] is > 100 µM (inactive); in experiment [8], 6.82 µM (inactive); in experiment [9], 12.3 µM (inactive); in experiment [10] it was 1.36 µM; in experiment [11] it was 18.9 µM (inactive); in [19], 3.47 µM (inactive). Moreover, the GI50 in [12] was 0.493 µM (active); in [13], 6.9 µM (inactive); in [14], 2.04 µM (inactive); in [15], 2.4 µM (inactive); in experiment [16] it was 0.632 µM (active); in experiment [17], 3.43 µM (inactive). Moreover, the GI50 in experiment [20] was 1.55 µM (inactive).

Consider `CCCCCCCCCCCCOC1C(COCCN2CCCCC2)OC2OC(C)(C)OC21` (stereo not given), for which the GI50 in [1] was 1.83 µM (inactive); in [2], 2.21 µM (inactive); in experiment [3], 1.85 µM (inactive); in [5], 1.11 µM (active); in [6], 1.86 µM (inactive); in experiment [7], 2.21 µM (inactive). The GI50 in experiment [18] was 1.59 µM (inactive); in experiment [8], 1.77 µM (inactive); in [9], 2.5 µM (inactive); in experiment [10], 1.79 µM; in experiment [11], 1.53 µM (inactive); in experiment [19], 2.67 µM (inactive). In addition, the GI50 in experiment [12] is 1.83 µM (inactive); in experiment [13], 1.73 µM (inactive); in experiment [14] it was 1.53 µM (inactive); in experiment [15], 1.24 µM (inactive); in experiment [16] it was 1.55 µM (inactive); in experiment [17], 2.47 µM (inactive). In addition, the GI50 in experiment [20] is 1.1 µM (active).

For the compound `CC(=O)OCC1OC(N2C(=O)/C(=C\c3ccc(Cl)cc3)C(N)=Nc3ccccc32)C(OC(C)=O)C(OC(C)=O)C1OC(C)=O` (stereo not given), the GI50 is 28.1 µM (inactive) in experiment [1]; 29.2 µM (inactive) in [2]; 33.4 µM (inactive) in [3]; 20.4 µM (inactive) in experiment [4]; 12.5 µM (inactive) in experiment [5]; 28.2 µM (inactive) in [6]. The GI50 was 27.9 µM (inactive) in experiment [7]; 23.2 µM (inactive) in experiment [8]; 37.8 µM (inactive) in [9]; 23 µM in [10]; 17.6 µM (inactive) in [11]; 18.2 µM (inactive) in experiment [19]. In addition, the GI50 in [12] was 19.6 µM (inactive); in [13], 11.8 µM (inactive); in [14], 6.43 µM (inactive); in [15], 33 µM (inactive); in [16], 17.1 µM (inactive); in [17], 25.9 µM (inactive).

For the compound `CN(CO)c1nc(N(C)CO)nc(N(C)CO)n1` [TRIMELAMOL], the GI50 in experiment [1] is 31.8 µM (inactive); in experiment [3], 26.4 µM (inactive); in [5] it was 18.7 µM (inactive); in experiment [6], 12.8 µM (inactive); in [7], 20.9 µM (inactive); in [18], 20.9 µM (inactive). For the same compound, the GI50 in experiment [8] is 3.51 µM (inactive); in experiment [9] it was 16.1 µM (inactive); in experiment [10], 9.89 µM; in [11] it was 20.6 µM (inactive); in experiment [12] it was 23.7 µM (inactive); in [13], 16.1 µM (inactive). For the same compound, the GI50 in experiment [14] is 27.2 µM (inactive); in experiment [15], 4.75 µM (inactive); in experiment [16], 9.86 µM (inactive); in experiment [17] it was 19.3 µM (inactive); in experiment [20] it was 5.78 µM (inactive).

The values above are taken from ChEMBL document CHEMBL1201862, “PubChem BioAssay data set” (2004).
